ChEMBL document CHEMBL1157539, “Thousands of chemical starting points for antimalarial lead identification” (Nature, 2010)

System: Plasmodium falciparum
Assay: GSK_TCMDC: Inhibition of Plasmodium falciparum 3D7 in whole erythrocytes, using parasite LDH activity as an index of growth.
Assay type: functional, organism-based
Details: Plasmodium falciparum, 3D7

Row | Structure (SMILES) | XC50
1 | Oc1ccc(CCNc2nc(NCCCOc3cccc(-c4ccccc4)c3)nc(N3CCNCC3)n2)cc1 | 1130 nM
2 | COc1ccc2nccc([C@@H](O)CN3CCC(NC(=O)C(=O)c4c[nH]c5c(C)cccc45)CC3)c2c1 | 307 nM
3 | Clc1ccc(CNCC2CCN(CC3CCCCC3)CC2)cc1Cl | 1000 nM
4 | O=C(Nc1ccc(F)cc1)NC1CCN(c2ccnc3cc(Cl)ccc23)CC1 | 408 nM
5 | CN(C)CCNCc1ccc(-c2ccc(-c3nc4ccccc4[nH]3)s2)cc1 | 569 nM
6 | COc1cc(NC(=O)N2CCOC(CCN3CCC(c4ccccc4)CC3)(c3ccc(Cl)c(Cl)c3)C2)cc(OC)c1OC (centres undefined) | 65.1 nM
7 | CC(C)(C)CCOC(=O)N1CCc2c(cc(O)c(O)c2Cl)C(c2ccc(O)cc2)C1 (centres undefined) | 752 nM
8 | COCc1cccc(-c2cc(-c3ccc(S(C)(=O)=O)cc3)cnc2N)c1 | 1000 nM
9 | CN1CCCC(CN2CCN(Cc3ccc(-c4ccc(-c5nc6ccccc6[nH]5)cc4)cc3)CC2)C1 (centres undefined) | 141 nM
10 | O=C(Nc1cccc(C2=NCCN2)c1)Nc1cccc(C2=NCCN2)c1 [IMIDOCARB] | 419 nM
11 | CN1CCN(CCCN(Cc2csc(-c3ccc(CNCc4ccccc4)cc3)n2)S(=O)(=O)c2ccccc2)CC1 | 773 nM
12 | c1cncc(-c2cccc(CNc3nccc(Nc4ccc(OCCN5CCOCC5)cc4)n3)c2)c1 | 1060 nM
13 | O=C(Nc1ccc(Oc2ccccc2)cc1)N1CCC(CN2CCC(c3c[nH]c4ccccc34)CC2)CC1 | 606 nM
14 | CC(=O)Nc1cccc(C(=O)Nc2cccc(-c3ccc(-c4nc5cccc(C)c5[nH]4)cc3)c2)c1 | 908 nM
15 | CCOC(=O)c1ccc(N=C2SC(=Cc3cc(Br)ccc3O)C(=O)N2C)cc1 | 998 nM
16 | CC(C)CNCc1ccc(-c2ccc(CN(C(=O)NCCc3ccccc3)C3CCN(Cc4ccccc4)CC3)cc2)cc1 | 699 nM
17 | Oc1cc(Nc2ccnc3cc(-c4ccc(CN5CCCCC5)o4)c(Cl)cc23)c(Cl)cc1F | 1260 nM
18 | N#Cc1ccc(N/C(=N\c2ccc(-c3ccccc3)cc2)NCCc2c[nH]c3ccccc23)c(O)c1 | 336 nM
19 | Nc1c2c(nc3ccc(Oc4ccc(Br)cc4Br)cc13)CCCC2 | 864 nM
20 | CCCC1N=C(N)N=C(N)N1c1ccc(Cl)cc1 (centres undefined) | 46.7 nM
21 | Fc1cc(Cl)ccc1Nc1ccnc2cc(-c3scnc3CNCCN3CCOCC3)ccc12 | 848 nM
22 | CC[C@H](C)[C@@H](C(=O)N1CCOCC1)N1CC[C@H](NS(=O)(=O)CC(C)(C)c2ccc(Cl)cc2)C1=O | 550 nM
23 | CCOC(=O)NCCSC(C)(C)[C@H](NC(=O)[C@H](Cc1cc2ccccc2s1)[C@H](CC)N(O)C=O)C(=O)Nc1nccs1 | 296 nM

Row | Structure (SMILES) | XC50
24 | N#Cc1ccc(N2CCN(Cc3ccc(-c4ccc(-c5nc6cc(C(F)(F)F)ccc6[nH]5)cc4)cc3)CC2)nc1 | 963 nM
25 | CN1CCCN(Cc2ccc(-c3cccc(NC(=O)c4cccc(F)c4)c3)cc2)CC1 | 980 nM
26 | Cc1nc(C)c(-c2ccc(Oc3ccc([S+](C)[O-])cc3)cc2)c(O)c1Br (centres undefined) | 765 nM
27 | O=S(=O)(Nc1cccc(CCN2CCCCC2CCN2CCCC2)c1)c1ccc(Oc2ccccc2)cc1 (centres undefined) | 1050 nM
28 | COC(=O)Cn1c(C2CCN(CC3CCC(NC(=O)/C=C/c4ccc(Cl)c(Cl)c4)CC3)CC2)nc2ccccc21 (centres undefined) | 1140 nM
29 | CC(C)(C)c1ccc(NC(=O)c2cccc(CN3CCCN(Cc4ccc(F)cc4)CC3)c2)cc1 | 989 nM
30 | COc1ccc2nccc([C@@H](O)CN3CCC(NCc4cc5cc(OC(F)(F)F)ccc5[nH]4)CC3)c2c1 | 127 nM
31 | COc1cc(F)c2ncc(Cl)c(C(O)CN3CCC(NC(=O)c4ccc5c(n4)NC(=O)CO5)CC3)c2c1 (centres undefined) | 754 nM
32 | Oc1ccc2c(CNCCc3ccccc3)c(O)ccc2c1CNCCc1ccccc1 | 104 nM
33 | CN(CCCN(C)c1cc(NC(=O)c2cccc(F)c2)ccn1)Cc1cccc(O)c1 | 1920 nM
34 | C/C=C1/CN2CC[C@H]1C[C@H]2[C@H](O)c1ccnc2ccc(OC)cc12 | 199 nM
35 | COc1ccc(Cl)cc1N1CCN(CCCNC(=O)c2ccc(-c3nc4cc5ccccc5cc4[nH]3)c(F)c2)CC1 | 804 nM
36 | COc1ccc(-c2nc(NC(=O)Cc3ccc4c(c3)OCCO4)sc2C)cc1 | 245 nM
37 | CCCNC(=O)c1cncc(-c2ccc(CNCCCc3ccccc3)cc2)c1 | 688 nM
38 | COCCn1c(-c2nc(-c3ccc(F)cc3)cnc2N)nc2ccccc21 | 872 nM
39 | COc1ccc2nccc([C@@H](O)CN3CCC(NCc4nc5c(cc4F)SCC(=O)N5)C(F)C3)c2c1 (some centres undefined) | 725 nM
40 | Nc1ncc(-c2ccsc2)c2ccc(-c3cc(NCc4ccccc4)ncn3)cc12 | 861 nM
41 | CC(C)c1ccc(NC(=O)c2ccc(C(=O)NC3CCN(Cc4ccccc4)CC3)cc2)cc1 | 982 nM
42 | Cc1cc(NC(=O)c2ccsc2)ccc1OC1CCN(Cc2ccc(F)cc2)CC1 | 1220 nM
43 | Nc1nc(N)c2cc(Cc3ccc([N+](=O)[O-])cc3)cnc2n1 | 943 nM
44 | CCCCCCCCn1c2c(c(=N)c3c1CCC3)CCCC2 | 109 nM
45 | COc1ccc(C(=O)CCC(=O)N(CCC2CCCN2C)Cc2ccc(-c3ccc(CNCCc4ccc(S(C)(=O)=O)cc4)cn3)cc2)cc1F (centres undefined) | 874 nM
46 | Cc1cccc2nc(-c3ccc(-c4ccc(CNCCCN5CCCC5=O)cc4)s3)[nH]c12 | 749 nM

Row | Structure (SMILES) | XC50
47 | COc1ccc(/C=C/C(=O)NCCCCCN2CCC(c3c[nH]c4ccccc34)CC2)cc1O | 957 nM
48 | CCCC/C=C(\Cl)c1ccc(O)c2c1C[C@H]1C[C@H]3[C@H](N(C)C)C(O)=C(C(N)=O)C(=O)[C@@]3(O)C(O)=C1C2=O | 1090 nM
49 | COc1ccc(O)c(C(=O)c2cc(C(=O)NC3CCCCC3)c(=O)n(C3CCCCC3)c2)c1 | 664 nM
50 | CC1(C)CCCN(Cc2c(O)ccc3c(O)c(-c4nc5ccccc5s4)c(=N)oc23)C1 | 337 nM
51 | CCn1c(SCc2ccc(F)cc2)nc2sc3c(c2c1=O)CCN(C)C3 | 254 nM
52 | CC(C)N(C(=O)CSc1nc2cc(Cl)ccc2c(=O)n1Cc1ccccc1)C(C)C | 167 nM
53 | OC(CNCc1ccccc1OCc1ccccc1)c1cc(C(F)(F)F)cc(C(F)(F)F)c1 (centres undefined) | 134 nM
54 | Cc1ccc(Nc2ccnc(Nc3ccc(F)c(Cl)c3)n2)cc1O | 733 nM
55 | Cc1[nH]c(C)c(-c2ccc(-c3ccccc3F)nc2)c(=O)c1Br | 401 nM
56 | Cc1ccc(NC(=O)NC2CCN(c3ccnc4ccccc34)C2)cc1 (centres undefined) | 709 nM
57 | CCOc1ccc2nc3cc(NC(=O)c4ccco4)ccc3c(N)c2c1 | 802 nM
58 | COc1ccc(Nc2nccc(N3CCC(NC(=O)C(C)c4ccc(Cl)cc4)CC3)n2)cc1 (centres undefined) | 934 nM
59 | CC(C)c1ccc(C(NC(=O)C2CCCCC2)c2ccc3cccnc3c2O)cc1 (centres undefined) | 603 nM
60 | CC(=O)c1cccc2cc(C(=O)NC3CCC(CCN4CCc5ccc(C#N)cc5C4)CC3)[nH]c12 (centres undefined) | 787 nM
61 | COCn1ccc2c3c(N)nc(N)nc3ccc21 | 990 nM
62 | CC(=O)N1N=C(c2[nH]c3ccc(Br)cc3c2C)OC1c1ccccc1 (centres undefined) | 777 nM
63 | CC(C)(C)OC(=O)c1c(NC(=O)/C=C/c2ccc(O)c(O)c2)sc2c1CCCC2 | 819 nM
64 | CN1CCN(c2ccc(Nc3c(C(N)=O)cnc4cc(-c5ccoc5)ccc34)cc2)CC1 | 806 nM
65 | Cc1cc(C(=O)N[C@H]2CCN(Cc3ccc(OCCCN(C)C)cc3)C2)ccc1Br | 898 nM
66 | NCc1ccc(Nc2nccc(Nc3ccc(-c4ccccc4)cc3)n2)cc1 | 892 nM
67 | Cc1ccc(CC(C)NCC(O)c2cccc(C(F)(F)F)c2)cc1 (centres undefined) | 981 nM
68 | C[C@@H]([C@@H](CCCCc1ccccc1)C(=O)N[C@H](C(=O)Nc1cccnc1)C(C)(C)C)N(O)C=O | 929 nM
69 | Cc1cc(C(=O)NC2CCN(Cc3ccccc3)CC2)ccc1-c1nc2cc(Cl)c(Cl)cc2[nH]1 | 959 nM
